Results taken from paper PMC11784200, “Insights into antibiotic resistance promoted by quinolone exposure” (Antimicrobial Agents and Chemotherapy, 2024).
In brackets after ≈: the same amount, converted by molar mass. Like-named read-outs stand apart in the source and are kept apart here.

How the values were obtained:
[1] = system: E. coli colonies that became resistant to CHL after CIP treatment; type: cell-based
[2] = system: E. coli marR mutant; experiment: CHL MIC of marR mutant; type: cell-based; details: partial deletion of marR in WT E. coli
Description: (§1) Minimum inhibitory concentration (MIC) values were determined in triplicate as described ([55]). […] All compounds were purchased from Sigma.

[3] = system: MG1655 ∆umuD; experiment: Broth-based MIC, ∆umuD; type: cell-based, E. coli; details: Escherichia coli
Description: as §1

[4] = system: MG1655 ∆dinB; experiment: Broth-based MIC, ∆dinB; type: cell-based, E. coli; details: Escherichia coli
Description: as §1

[5] = system: MG1655 ∆recA; experiment: Broth-based MIC, ∆recA; type: cell-based, E. coli; details: Escherichia coli
Description: as §1

[6] = system: MG1655 ΔdinB ΔpolB ΔumuD; experiment: Broth-based MIC, ΔdinB ΔpolB ΔumuD; type: cell-based, E. coli; details: Escherichia coli
Description: as §1

[7] = system: MG1655 ∆polB; experiment: Broth-based MIC, ∆polB; type: cell-based, E. coli; details: Escherichia coli
Description: as §1

[8] = system: E. coli MLS83L; experiment: Broth-based MIC, MLS83L; type: cell-based; details: Escherichia coli
Description: as §1

[9] = system: MG1655 lexA(S119A); experiment: Broth-based MIC, lexA(S119A); type: cell-based, E. coli; details: Escherichia coli
Description: as §1

[10] = colony 1, plates with 2× MIC after 24 h on LB without selection
[11] = colony 2, plates with 2× MIC after 24 h on LB without selection
[12] = colony 3, plates with 2× MIC after 24 h on LB without selection
[13] = colony 4, plates with 2× MIC after 24 h on LB without selection
[14] = colony 5, plates with 2× MIC after 24 h on LB without selection
[15] = colony 6, plates with 2× MIC after 24 h on LB without selection
[16] = colony 7, plates with 2× MIC after 24 h on LB without selection
[17] = colony 8, plates with 2× MIC after 24 h on LB without selection
[18] = colony 9, plates with 2× MIC after 24 h on LB without selection
[19] = colony 10, plates with 2× MIC after 24 h on LB without selection
[20] = colony 11, plates with 2× MIC after 24 h on LB without selection
[21] = colony 12, plates with 2× MIC after 24 h on LB without selection
[22] = colony 13, plates with 2× MIC after 24 h on LB without selection
[23] = colony 14, plates with 2× MIC after 24 h on LB without selection
[24] = colony 15, plates with 2× MIC after 24 h on LB without selection
[25] = colony 16, plates with 2× MIC after 24 h on LB without selection
[26] = colony 17 (first line so numbered, r20), plates with 2× MIC after 24 h on LB without selection
[27] = colony 17 (second line so numbered, r21), plates with 2× MIC after 24 h on LB without selection
[28] = colony 19, plates with 2× MIC after 24 h on LB without selection
[29] = colony 20, plates with 2× MIC after 24 h on LB without selection
[30] = colony 21, plates with 2× MIC after 24 h on LB without selection
[31] = colony 22, plates with 2× MIC after 24 h on LB without selection
[32] = colony 23, plates with 2× MIC after 24 h on LB without selection
[33] = colony 24, plates with 2× MIC after 24 h on LB without selection
[34] = colony 25, plates with 2× MIC after 24 h on LB without selection
[35] = colony 26, plates with 2× MIC after 24 h on LB without selection
[36] = colony 27, plates with 2× MIC after 24 h on LB without selection

Oc1cc(Cl)ccc1Oc1ccc(Cl)cc1Cl [TRI, triclosan] was tested, and the Antibiotic resistance [1, 10] was “No”, the Antibiotic resistance [1, 11] was “No” and the Antibiotic resistance [1, 12] was “Yes”. The Antibiotic resistance [1, 13] was “No”, the Antibiotic resistance [1, 14] was “No” and the Antibiotic resistance [1, 15] was “No”. For the same compound, the Antibiotic resistance [1, 16] was “Yes”, the Antibiotic resistance [1, 17] was “Yes” and the Antibiotic resistance [1, 18] was “No”. The Antibiotic resistance [1, 19] was “Yes”, the Antibiotic resistance [1, 20] was “No” and the Antibiotic resistance [1, 21] was “No”. The Antibiotic resistance [1, 22] was “No”, the Antibiotic resistance [1, 23] was “No” and the Antibiotic resistance [1, 24] was “No”. For the same compound, the Antibiotic resistance [1, 25] was “No”, the Antibiotic resistance [1, 26] was “No” and the Antibiotic resistance [1, 27] was “No”. For the same compound, the Antibiotic resistance [1, 28] was “No”, the Antibiotic resistance [1, 29] was “No” and the Antibiotic resistance [1, 30] was “No”. For the same compound, the Antibiotic resistance [1, 31] was “No”, the Antibiotic resistance [1, 32] was “No” and the Antibiotic resistance [1, 33] was “No”. For the same compound, the Antibiotic resistance [1, 34] was “No”, the Antibiotic resistance [1, 35] was “No” and the Antibiotic resistance [1, 36] was “No”.
With CN(C)[C@@H]1C(O)=C(C(N)=O)C(=O)[C@@]2(O)C(O)=C3C(=O)c4c(O)cccc4[C@@](C)(O)[C@H]3C[C@@H]12 [TET, tetracycline] the Antibiotic resistance [1] was “No and Yes”.
O=C(N[C@H](CO)[C@H](O)c1ccc([N+](=O)[O-])cc1)C(Cl)Cl [CHL, chloramphenicol] was tested, and the “Increase in the MIC compared to the WT strain” value [2] was “eightfold”, the Antibiotic resistance [1, 10] was “No” and the Antibiotic resistance [1, 11] was “No”. For the same compound, the Antibiotic resistance [1, 12] was “Yes”, the Antibiotic resistance [1, 13] was “Yes” and the Antibiotic resistance [1, 14] was “Yes”. The Antibiotic resistance [1, 15] was “Yes”, the Antibiotic resistance [1, 16] was “Yes” and the Antibiotic resistance [1, 17] was “Yes”. For the same compound, the Antibiotic resistance [1, 18] was “Yes”, the Antibiotic resistance [1, 19] was “Yes” and the Antibiotic resistance [1, 20] was “Yes”. The Antibiotic resistance [1, 21] was “Yes”, the Antibiotic resistance [1, 22] was “Yes” and the Antibiotic resistance [1, 23] was “Yes”. For the same compound, the Antibiotic resistance [1, 24] was “Yes”, the Antibiotic resistance [1, 25] was “Yes” and the Antibiotic resistance [1, 26] was “Yes”. The Antibiotic resistance [1, 27] was “Yes”, the Antibiotic resistance [1, 28] was “Yes” and the Antibiotic resistance [1, 29] was “Yes”. For the same compound, the Antibiotic resistance [1, 30] was “Yes”, the Antibiotic resistance [1, 31] was “Yes” and the Antibiotic resistance [1, 32] was “Yes”. For the same compound, the Antibiotic resistance [1, 33] was “Yes”, the Antibiotic resistance [1, 34] was “Yes” and the Antibiotic resistance [1, 35] was “Yes”. The Antibiotic resistance [1, 36] was “Yes” and the “Colonies that retained resistance” value ([1]; of 27 CHL-resistant colonies from CIP treatment, cultured without selection) was 25.
For NC[C@H]1O[C@H](O[C@H]2[C@H](O)[C@@H](O[C@H]3O[C@H](CO)[C@@H](O)[C@H](N)[C@H]3O)[C@H](N)C[C@@H]2N)[C@H](O)[C@@H](O)[C@@H]1O [KAN, kanamycin], the Antibiotic resistance [1] was “No”.
With CC1(C)S[C@@H]2[C@H](NC(=O)[C@H](N)c3ccccc3)C(=O)N2[C@H]1C(=O)O [AMP, ampicillin] the Antibiotic resistance [1, 10] was “No”, the Antibiotic resistance [1, 11] was “No” and the Antibiotic resistance [1, 12] was “No”. For the same compound, the Antibiotic resistance [1, 13] was “No”, the Antibiotic resistance [1, 14] was “No” and the Antibiotic resistance [1, 15] was “Yes”. For the same compound, the Antibiotic resistance [1, 16] was “No”, the Antibiotic resistance [1, 17] was “No” and the Antibiotic resistance [1, 18] was “No”. For the same compound, the Antibiotic resistance [1, 19] was “No”, the Antibiotic resistance [1, 20] was “No” and the Antibiotic resistance [1, 21] was “No”. For the same compound, the Antibiotic resistance [1, 22] was “No”, the Antibiotic resistance [1, 23] was “No” and the Antibiotic resistance [1, 24] was “No”. The Antibiotic resistance [1, 25] was “No”, the Antibiotic resistance [1, 26] was “No” and the Antibiotic resistance [1, 27] was “No”. The Antibiotic resistance [1, 28] was “No”, the Antibiotic resistance [1, 29] was “No” and the Antibiotic resistance [1, 30] was “No”. For the same compound, the Antibiotic resistance [1, 31] was “No”, the Antibiotic resistance [1, 32] was “No” and the Antibiotic resistance [1, 33] was “No”. The Antibiotic resistance [1, 34] was “No”, the Antibiotic resistance [1, 35] was “No” and the Antibiotic resistance [1, 36] was “No”.
For COc1cc(Cc2cnc(N)nc2N)cc(OC)c1OC [TMP, trimethoprim], the Antibiotic resistance [1] was “No and Yes”.
[H]/N=C(/N)N[C@H]1[C@H](O)[C@@H](O)[C@H](O[C@@H]2O[C@@H](C)[C@](O)(C=O)[C@H]2O[C@@H]2O[C@@H](CO)[C@H](O)[C@@H](O)[C@@H]2NC)[C@@H](N/C(N)=N\[H])[C@@H]1O [STR, streptomycin] was tested, and the Antibiotic resistance [1, 10] was “No”, the Antibiotic resistance [1, 11] was “No” and the Antibiotic resistance [1, 12] was “No”. For the same compound, the Antibiotic resistance [1, 13] was “Yes”, the Antibiotic resistance [1, 14] was “No” and the Antibiotic resistance [1, 15] was “No”. For the same compound, the Antibiotic resistance [1, 16] was “No”, the Antibiotic resistance [1, 17] was “No” and the Antibiotic resistance [1, 18] was “No”. The Antibiotic resistance [1, 19] was “No”, the Antibiotic resistance [1, 20] was “No” and the Antibiotic resistance [1, 21] was “No”. For the same compound, the Antibiotic resistance [1, 22] was “No”, the Antibiotic resistance [1, 23] was “No” and the Antibiotic resistance [1, 24] was “No”. The Antibiotic resistance [1, 25] was “No”, the Antibiotic resistance [1, 26] was “No” and the Antibiotic resistance [1, 27] was “No”. The Antibiotic resistance [1, 28] was “No”, the Antibiotic resistance [1, 29] was “No” and the Antibiotic resistance [1, 30] was “No”. For the same compound, the Antibiotic resistance [1, 31] was “No”, the Antibiotic resistance [1, 32] was “No” and the Antibiotic resistance [1, 33] was “No”. The Antibiotic resistance [1, 34] was “No”, the Antibiotic resistance [1, 35] was “No” and the Antibiotic resistance [1, 36] was “No”.
With CO[C@H]1/C=C/O[C@@]2(C)Oc3c(C)c(O)c4c(O)c(c(/C=N/N5CCN(C)CC5)c(O)c4c3C2=O)NC(=O)/C(C)=C\C=C\[C@H](C)[C@H](O)[C@@H](C)[C@@H](O)[C@@H](C)[C@H](OC(C)=O)[C@@H]1C [RIF, rifampin] the Antibiotic resistance [1] was “No”.
In the case of O=C(O)c1cn(C2CC2)c2cc(N3CCNCC3)c(F)cc2c1=O [CIP, ciprofloxacin], the MIC [3] is reported as 0.021 µg/mL (≈ 0.0634 µM), the MIC [4] is reported as 0.032 µg/mL (≈ 0.0966 µM) and the MIC [5] is reported as 0.006 µg/mL (≈ 0.0181 µM). For the same compound, the MIC [6] was 0.032 µg/mL (≈ 0.0966 µM), the MIC [7] was 0.032 µg/mL (≈ 0.0966 µM) and the MIC [8] was 0.256 µg/mL (≈ 0.773 µM). The MIC [9] was 0.008 µg/mL (≈ 0.0241 µM).
